Test results from US20120071536A1, “N-[(2-AZABICYCLO[2.1.1]HEX-1-YL)-ARYL-METHYL]-BENZAMIDE DERIVATIVES, PREPARATION THEREOF, AND THERAPEUTIC USE THEREOF” (SANOFI, priority 2009, published 2012).
Where a name gives a salt, the structure may show the parent alone.

Experiments:
[1] = biological target: T1, native human transporter GlyT1 (Homo sapiens, UniProt P48067); test: Uptake of [14C]glycine in SK-N-MC cells expressing the native human transporter GlyT1; type: cell-based; details: 10 μM [14C]glycine, 10 min at 37° C., pH 7.4, read-out: IC50 (concentration of the compound which reduces by 50% the specific uptake of glycine)
T1 construct: expressing the native human transporter GlyT1; endogenous in cells; host or cells: SK-N-MC cells (human neuroepithelial cells)
T1 sequence (P48067 1-706): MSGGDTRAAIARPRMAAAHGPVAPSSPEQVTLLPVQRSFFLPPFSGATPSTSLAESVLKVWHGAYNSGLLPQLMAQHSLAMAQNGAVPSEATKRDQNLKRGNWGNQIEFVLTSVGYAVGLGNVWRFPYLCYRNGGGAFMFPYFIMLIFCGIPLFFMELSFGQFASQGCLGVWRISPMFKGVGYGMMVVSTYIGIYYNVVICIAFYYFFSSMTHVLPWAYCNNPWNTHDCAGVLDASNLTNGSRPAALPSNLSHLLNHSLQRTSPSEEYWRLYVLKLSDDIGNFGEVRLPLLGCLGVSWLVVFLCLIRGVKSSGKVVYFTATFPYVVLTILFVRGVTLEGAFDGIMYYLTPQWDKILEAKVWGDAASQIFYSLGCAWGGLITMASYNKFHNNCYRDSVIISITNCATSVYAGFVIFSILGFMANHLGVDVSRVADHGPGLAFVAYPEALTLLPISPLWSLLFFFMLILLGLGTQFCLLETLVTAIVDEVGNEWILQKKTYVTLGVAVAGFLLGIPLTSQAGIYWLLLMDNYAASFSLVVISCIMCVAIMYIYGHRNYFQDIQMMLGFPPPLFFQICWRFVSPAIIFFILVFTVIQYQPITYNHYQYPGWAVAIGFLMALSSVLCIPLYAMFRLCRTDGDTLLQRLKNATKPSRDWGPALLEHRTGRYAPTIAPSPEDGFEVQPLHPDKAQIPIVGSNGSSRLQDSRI
Protocol: Study of Glycine Transportation in SK-N-MC Cells Expressing the Native Human Transporter GlyT1.
The uptake of [^14C]glycine is studied in SK-N-MC cells (human neuroepithelial cells) expressing the native human transporter GlyT1 by measuring the radioactivity incorporated in the presence or absence of the test compound. The cells are cultured as a monolayer for 48 hours in plates pretreated with 0.02% fibronectin. On the day of the experiment, the culture medium is removed and the cells are washed with Krebs-HEPES (4-(2-hydroxyethyl)piperazine-1-ethanesulphonic acid) buffer at pH 7.4. After preincubation for 10 minutes at 37° C. in the presence either of buffer (control batch) or of test compound at various concentrations or of 10 mM of glycine (determination of the non-specific uptake), 10 μM of [^14C]glycine (specific activity 112 mCi/mmol) are subsequently added. Incubation is continued for 10 min at 37° C. and the reaction is halted by washing twice with pH 7.4 Krebs-HEPES buffer. The radioactivity incorporated by the cells is then estimated after adding 100 μl of liquid scintillant and stirring for 1 h. Counting is carried out on a Microbeta Tri-Lux™ counter. The effectiveness of the compound is determined by the IC50, the concentration of the compound which reduces by 50% the specific uptake of glycine, defined by the difference in radioactivity incorporated by the control batch and the batch which received the 10 mM glycine.

Row | IC50 [1] [nM] | melting point [°C] | SMILES
1 | 1100 |  | Nc1ccc(C(NC(=O)c2cccc(C(F)(F)F)c2Cl)C23CC(CN2)C3)cc1 (racemic) [Compound 1, N-[(4-Aminophenyl)(2-azabicyclo[2.1.1]hex-1-yl)methyl]-2-chloro-3-(trifluoromethyl)-benzamide]
2 | 26 |  | O=C(NC(c1ccccc1)C12CC(CN1)C2)c1cccc(C(F)(F)F)c1Cl (racemic) [Compound 5, N-[(2-azabicyclo[2.1.1]hex-1-yl)(phenyl)methyl]-2-chloro-3-(trifluoromethyl)benzamide hydrochloride (1:1)]
3 | 160 | 115 to 117 | CSc1ccc(Cl)c(C(=O)NC(c2ccccc2)C23CC(CN2)C3)c1 (racemic) [Compound 11, N-[(2-Azabicyclo[2.1.1]hex-1-yl)(phenyl)methyl]-2-chloro-5-(methylsulphanyl)-benzamide]
4 | 21 | 168.5 to 169.5 | CN1CC2CC1(C(NC(=O)c1cccc(C(F)(F)F)c1Cl)c1ccccc1)C2.Cl (racemic) [Compound 18, 2-Chloro-N-[(2-methyl-2-azabicyclo[2.1.1]hex-1-yl)(phenyl)methyl]-3-(trifluoromethyl)benzamide hydrochloride (1:1)]
5 | 110 |  | CC(C)(O)CN1CC2CC1(C(NC(=O)c1c(Cl)ccc(C(F)(F)F)c1Cl)c1ccccc1)C2 (racemic) [Compound 22]
6 | 300 | 82 to 83 | O=C(NC(c1ccccc1)C12CC(CN1CC(F)(F)F)C2)c1c(Cl)ccc(C(F)(F)F)c1Cl (racemic) [Compound 23, 2,6-Dichloro-N-{(phenyl)[2-(2,2,2-trifluoroethyl)-2-azabicyclo[2.1.1]hex-1-yl]methyl}-3-(trifluoromethyl)benzamide]
7 | 1.6 |  | CCc1ccccc1C(=O)NC(c1ccccc1)C12CC(CN1CC)C2 (racemic) [Compound 31, 2-Ethyl-N-[(2-ethyl-2-azabicyclo[2.1.1]hex-1-yl)(phenyl)methyl]benzamide]
8 |  | 160 to 170 | O=C(NC(c1ccccc1)C12CC(CN1)C2)c1cccc(C(F)(F)F)c1Cl (single isomer, unassigned; (+)) (as salt: HCl) [Compound 14, (+)-N-[(2-Azabicyclo[2.1.1]hex-1-yl)(phenyl)methyl]-2-chloro-3-(trifluoromethyl)-benzamide]
9 |  | 257 to 259 | CCN1CC2CC1(C(NC(=O)c1cccc(C(F)(F)F)c1Cl)c1ccccc1)C2 (single isomer, unassigned; (+)) (as salt: HCl) [Compound 26, (+)-2-Chloro-N-[(2-ethyl-2-azabicyclo[2.1.1]hex-1-yl)(phenyl)methyl]-3-(trifluoromethyl)benzamide]
10 |  | 140 to 150 | O=C(NC(c1ccccc1)C12CC(CN1)C2)c1cccc(C(F)(F)F)c1Cl (single isomer, unassigned; (-)) (as salt: HCl) [Compound 13, (−)N-[(2-Azabicyclo[2.1.1]hex-1-yl)(phenyl)methyl]-2-chloro-3-(trifluoromethyl)-benzamide]
